Consider two compounds from patent publication US9207219B1, “Fully automated analytical method for determination of chloroethers in water and urine sample” (priority 2014, dated 2015).

Molecules are shown by their SMILES. In brackets after ≈: the same amount, converted by molar mass.

Data set [1] in a line: Concentration of CEs in human urine determined by fully automated FA-SPME/GC-MS. Conditions: urine of a volunteer working at water desalination facility; urine diluted 1:1 with ultrapure water before extraction. As to the method: Analyses were performed using a gas chromatograph (Agilent technologies, 7890A GC) coupled with a quadrupole mass selective spectrometer (Agilent technologies, 5975C) equipped with an inert ion source and provided with a split-splitless injection port. An A HP-5 GC fused silica capillary column (Agilent 19091J-413; 30 m×320 μm ID×0.25 μm thickness) was selected to separate the analytes. CTC CombiPAL autosampler (GC sampler 80, Zwingen, Switzerland) was used for the full automated FA-SPME. Ultra high purity helium (99.999%, Abdulah Hashim, Al-Khobar, Saudi Arabia) was used as the carrier gas at a flow rate of 1.3 mL min^−1. The samples were injected in the splitless mode. The temperature program used for the analyses was as follows: the initial temperature was 40° C. held 1 min which was then increased to 118° C. at 10° C. min^−1 and held for 3 min, then to 190 C at 15° C. min^−1 and held for 4 min. The total run time was 18.6 min. The injection port, ion source and interface temperatures were 280° C., 230° C., and 250° C., respectively. For qualitative determinations, the MSD was operated in full-scan mode from m/z 50 to 550 and selective ion monitoring mode was used for the quantification of the analytes. […]
The applicability of the proposed FA-SPME technique for real water and urine sample matrices were evaluated. […]

For data set [2] the following is noted: cited from earlier work.
The conditions of data set [3]: cited from earlier work. This is another data set of the same source.

In general, Solubility refers to how much of the substance goes into solution per volume. Turning to `ClCCOCCCl` [BCEE, Bis(2-chloroethyl)ether], in data set [1], the “concentration in real sample, Human urine” value amounted to 30.8 ng/mL. Also, in data set [2], the “Solubility at 20-25° C.” value is 10200 µg/mL (≈ 71.3 mM), the “Vapor pressure at 20-25° C.” value was 1.34 mmHg, the “Henry's law constant at 20° C.” value was 0.00089 and the “Diffusion coefficient in air” value is reported as 0.069 cm^2 s^−1. Further, the “Diffusion coefficient in water” value in data set [2] is listed as 7.53E−06 cm^2 s^−1.

For `ClCCOCOCCCl` [BCEM, Bis(2-chloroethoxy)methane], the “concentration in real sample, Human urine” value in data set [1] was determined as 11.5 ng/mL. In data set [2], the “Solubility at 20-25° C.” value was 1353.4 µg/mL (≈ 7.82 mM), the “Vapor pressure at 20-25° C.” value is 0.179 mmHg, the “Henry's law constant at 20° C.” value was 0.001 and the “Diffusion coefficient in air” value was 0.058 cm^2 s^−1. For the same compound, in data set [2], the “Diffusion coefficient in water” value is recorded as 7.11E−06 cm^2 s^−1. In data set [3], the “minimum half-life in water” value is reported as ≥ 2 years.
